Assay results reported in patent US5516790A, “Synthesis and application of alkyl-substituted dibenzofurans as antitumorigenic agents” (Texas A&M University System Technology Licensing Office, priority 1994, dated 1996).
Like-named read-outs stand apart in the source and are kept apart here.

Tests used:
progesterone receptor = settings: female rat; cited from earlier work
estrogen receptor = settings: female rat; cited from earlier work
[1] = test system: MCF-7 human breast cancer cells; settings: TCDD; cited from earlier work
estrogen receptor (ER) = format: in vivo, female Sprague/Dawley rats
Method: (§1) TCDD or MCDF was co-administered with a second dose of estradiol and the animals were killed 48-hours later. A second group of animals was similarly treated with corn oil, TCDD, MCDF, or TCDD plus MCDF, all administered in corn oil at 10 ml/kg and terminated 72 hours later.
(§2) The animals were terminated by cervical dislocation. Livers were perfused with ice-cold TEDG buffer (10 mM Tris-HCl, 1.5 mM EDTA-4Na, 1 mM dithiothreitol, 10% glycerol (v/v), pH 7.4). Following perfusion in situ, livers were removed, weighed, and homogenized in ice-cold TEDG buffer. Uteri were also removed, weighed, and homogenized in ice-cold buffer. The homogenates were then centrifuged at 800×g […] for 15 minutes and the nuclear pellets were stored at -80° C. The supernatants were further centrifuged at 180,000×g for 1.5 hour. The cytosolic supernatant was also stored at -80° C. Estrogen and progesterone receptor levels were determined within 7 days.
(§3) Estrogen and progesterone receptor levels were determined by the hydroxyapatite assay as described by Clark et al. (J. Steroid, Biochem., 16, 323-328 (1982)). […] Following the incubations, samples were counted and specific binding was calculated by subtraction of nonspecific from total binding. Assuming one steroid molecule binds to one estrogen/progesterone receptor, the number of moles of receptor can be calculated given the specific activity of the radioligand. […] Significant differences were determined by ANOVA.

[2] = test system: progesterone receptor (PR); format: in vivo, female Sprague/Dawley rats
Method: as §1, §2, §3

34-kDa protein = format: cell-based, human; settings: for Secreted 34-kDa protein: 2880 min
Method: (§4) On day 0, the media was removed and the cells were rinsed two times with PBS. […] The cells were allowed to incubate for 48 h. […] After 6 h, the media was removed, 10 μl was counted and the remaining media was used for analysis of secreted proteins.
(§5) The secreted proteins were analyzed by sodium dodecyl sulfate (SDS) polyacrylamide gel electrophoresis; 30 μl of the media was mixed with an equal volume of buffer containing SDS, β-mercaptoethanol, glycerol, Tris and bromophenol blue. The samples were heated for 2 minutes in a boiling water bath and 50 μl of each sample was loaded onto a 1.5 mm thick 12% acrylamide slab gel (containing 0.075% bisacrylamide) with a 3% stacking gel (containing 0.15% bisacrylamide). The gels were run at […] overnight and processed for fluorography (using Enhance: Dupont) and exposed to Kodak X-OMAT film for 10 days at -80° C. The molecular weights of the proteins were estimated by their mobility relative to a set of standard proteins with known molecular weights.
(§6) The incorporation of ^35 S-methionine into the 34-kDa, 52-kDa and 160-kDa proteins was estimated by scanning the films using a Zeineh Soft Laser Scanning Densitometer (model SLR-20/10) from Biomedical Instruments,Inc. The percentage of the area of the scans due to the particular protein was then compared between the experimental and control samples and the results are presented as means ± SD for at least three samples per treatment group.

52-kDa protein = format: cell-based, human
Method: as §4, §5, §6

160-kDa protein = format: cell-based, human; settings: for Secreted 160-kDa protein: 2880 min
Method: as §4, §5, §6

female rat uterus = format: in vivo, female Sprague/Dawley rats
Method: as §1, §2

nuclear ER = settings: cited from earlier work
[3] = Table 11, compound alone: TCDD 0.256 or MCDF 100 μmol/kg, or estradiol
[4] = 17β-estradiol (1 nM) + TCDD 0.0001 nM
[5] = 17β-estradiol (1 nM) + TCDD 0.001 nM
[6] = 17β-estradiol (1 nM) + TCDD 0.01 nM
[7] = 17β-estradiol (1 nM) + TCDD 0.1 nM

## Clc1cc2c(cc1Cl)Oc1cc(Cl)c(Cl)cc1O2 [TCDD, 2,3,7,8-tetrachloridibenzo-p-dioxin]
Progesterone receptor
  constitutive and 17β-estradiol induced uterine and hepatic progesterone receptor levels: decreased
Estrogen receptor
  constitutive and 17β-estradiol induced uterine and hepatic estrogen receptor levels: decreased
[1]
  17β-estradiol-induced growth of MCF-7 human breast cancer cells: inhibits
Estrogen receptor (ER); TCDD 0.256 μmol/kg
  Hepatic ERc: 1.7 ± 0.3 fmol/mg protein
  Hepatic ERn: 2.3 ± 0.6 fmol/mg protein
  Uterine ERc: 92.1 ± 8.2 fmol/mg protein
  Uterine ERn: 10.6 ± 0.6 fmol/mg protein
Estrogen receptor (ER); [3]
  Hepatic ERc: 2.2 ± 0.8 fmol/mg protein
  Hepatic ERn: 2.4 ± 0.4 fmol/mg protein
  Uterine ERc: 57.8 ± 6.3 fmol/mg protein
  Uterine ERn: 11.7 ± 0.8 fmol/mg protein
Estrogen receptor (ER); Table 11, cotreatment with E-2
  Hepatic ERc: 6.8 ± 1.0 fmol/mg protein
  Hepatic ERn: 4.0 ± 0.8 fmol/mg protein
  Uterine ERc: 82.8 ± 5.4 fmol/mg protein
  Uterine ERn: 17.4 ± 1.0 fmol/mg protein
[2]; TCDD 0.256 μmol/kg
  Hepatic PRc: 38.3 ± 3.9 fmol/mg protein
  Hepatic PRn: 5.9 ± 1.1 fmol/mg protein
  Uterine PRc: 82 ± 30.2 fmol/mg protein
  Uterine PRn: 190 ± 14.2 fmol/mg protein
[2]; [3]
  Hepatic PRc: 61.9 ± 7.3 fmol/mg protein
  Hepatic PRn: 5.9 ± 0.4 fmol/mg protein
  Uterine PRc: 898.0 ± 49.2 fmol/mg protein
  Uterine PRn: 180 ± 9.9 fmol/mg protein
[2]; Table 11, cotreatment with E-2
  Hepatic PRc: 110.3 ± 8.3 fmol/mg protein
  Hepatic PRn: 6.8 ± 1.3 fmol/mg protein
  Uterine PRc: 811.3 ± 27.1 fmol/mg protein
  Uterine PRn: 511 ± 19.3 fmol/mg protein
34-kDa protein; 10 nM TCDD alone
  secretion of the 34-kDa protein: did not significantly affect
34-kDa protein; [4]
  Secreted 34-kDa protein: 255 ± 37.8% of the values for control
34-kDa protein; [5]
  Secreted 34-kDa protein: 151 ± 20.7% of the values for control
34-kDa protein; [6]
  Secreted 34-kDa protein: 94.2 ± 24.0% of the values for control
34-kDa protein; [7]
  Secreted 34-kDa protein: 94.9 ± 11.4% of the values for control
34-kDa protein; TCDD alone, 0.0001 nM
  Secreted 34-kDa protein: 86.5 ± 8.56% of the values for control
34-kDa protein; TCDD alone, 0.001 nM
  Secreted 34-kDa protein: 95.2 ± 12.8% of the values for control
34-kDa protein; TCDD alone, 0.01 nM
  Secreted 34-kDa protein: 85.7 ± 11.9% of the values for control
34-kDa protein; TCDD alone, 0.1 nM
  Secreted 34-kDa protein: 94.5 ± 133% of the values for control
34-kDa protein; TCDD plus 17β-estradiol
  hormone-induced secretion of the 34-kDa protein: significantly inhibited
52-kDa protein; 10 nM TCDD alone
  secretion of the 52-kDa protein: did not significantly affect
52-kDa protein; TCDD plus 17β-estradiol
  hormone-induced secretion of the 52-kDa protein: significantly inhibited
160-kDa protein; 10 nM TCDD alone
  secretion of the 160-kDa protein: did not significantly affect
160-kDa protein; [4]
  Secreted 160-kDa protein: 321 ± 29.0% of the values for control
160-kDa protein; [5]
  Secreted 160-kDa protein: 167 ± 31.3% of the values for control
160-kDa protein; [6]
  Secreted 160-kDa protein: 127 ± 21.0% of the values for control
160-kDa protein; [7]
  Secreted 160-kDa protein: 94.3 ± 5.23% of the values for control
160-kDa protein; TCDD alone, 0.0001 nM
  Secreted 160-kDa protein: 97.4 ± 2.73% of the values for control
160-kDa protein; TCDD alone, 0.001 nM
  Secreted 160-kDa protein: 94.3 ± 3.00% of the values for control
160-kDa protein; TCDD alone, 0.01 nM
  Secreted 160-kDa protein: 90.4 ± 17.2% of the values for control
160-kDa protein; TCDD alone, 0.1 nM
  Secreted 160-kDa protein: 92.8 ± 5.16% of the values for control
160-kDa protein; TCDD plus 17β-estradiol
  hormone-induced secretion of the 160-kDa protein: significantly inhibited
Female rat uterus; compound alone: TCDD 0.256 or MCDF 100 μmol/kg, or estradiol
  Uterine Wet Weight: 0.086 ± 0.011 % body wt
Female rat uterus; cotreatment with E-2
  Uterine Wet Weight: 0.245 ± 0.026 % body wt
Nuclear ER; concentration-dependent, antibodies to human ER
  immunoreactive ER protein: decrease in immunoreactive ER protein
Nuclear ER; cotreatment 10 nM TCDD plus [3H]-17β-estradiol
  levels of occupied nuclear ER complex: did not affect
Nuclear ER; pretreatment with TCDD 6 or 12 hours prior to radiolabeled hormone
  occupied nuclear ER levels: significant downregulation
